Measurements reported in patent US20230174608A1, “Polypeptide Derivative Having Dual Receptor Agonistic Action and Use Thereof” (TIANJIN INSTITUTE OF PHARMACEUTICAL RESEARCH CO., LTD., priority 2020, published 2023).
Marks after values point to notes of the source that are not given here. Where a SMILES comes first, the peptide text is derived from it.

Experiments:
[1] = target: T1, GLP-1R (Homo sapiens, UniProt P43220); test: GLP-1 receptor-mediated cAMP production in vitro; assay type: cell-based; settings: HEK293 cell line stably expressing GLP-1R
T1 construct: expressed in transfected cells
How it was run: (§1)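 HEK293 cells stably expressing human GLP-1R or GCGR are stimulated with compound for 30 min in the dark in serum-free medium with 0.5 mM IBMX, with test dilutions spanning 1 μM down to 10^−3 nM. cAMP is detected after a 60 min room-temperature reaction as the 665/615 nm ratio.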

[2] = target: T2, GCGR (Homo sapiens, UniProt P47871); test: GC receptor-mediated cAMP production in vitro; assay type: cell-based; settings: HEK293 cell line stably expressing GCGR
T2 construct: expressed in transfected cells
How it was run: as §1

[3] = system: glucose loaded normal mice; test: Glucose loading test on normal mice after single administration; assay type: in vivo, Kunming mice; settings: for Blood glucose reduction rate (%) / Blood glucose level after glucose loading: 30 nmol/kg single dose; for Blood glucose reduction rate (%): after glucose loading, versus model control group; for Blood glucose level after glucose loading: glucose 2.5 g/kg intragastric 60 min after administration, measured 30 min after loading; for Blood glucose level after glucose loading / Fasting blood glucose level: n=5; for Fasting blood glucose level: normal mice fasted 6 h, 30 nmol/kg group
Method: The hypoglycemic action of each compound of Example 1 was assessed by a glucose loading test on normal mice after single administration.
Method: Kunming mice (male, with a weight of 20-22 g) were acclimated in a barrier environment animal room for 3 days, divided into a blank control group, a model control group, a positive control group, and test compound groups, 5 mice in each group, and fasted for 6 h. Saline was administered to each mouse in the blank control group and the model control group, the compounds and a positive control drug were respectively administered to each mouse in the test compound groups and the positive control group at a dose of 30 nmol/kg, and the positive control drug was semaglutide. 60 min after administration, glucose was intragastrically administered to each mouse in the model control group, the positive control group, and the test compound groups at a dose of 2.5 g/kg (0.01 mL·g^−1 weight), distilled water was administered to each mouse in the blank control group, and blood glucose levels were determined 30 min after glucose loading.

[4] = system: diet-induced obesity (DIO) mice; test: DIO model mice, weight after 2 weeks of administration; assay type: in vivo, C57BL/6N mice; settings: 30 nmol/kg s.c. once a day, 14 days
Excerpt: Method: C57BL/6N mice were fed with H10060 high-fat diets to obtain diet-induced obesity (DIO) models, and mice in a control group (n=5) were fed with standard diets. One day before the first administration, the mice in the model group were randomly divided into 6 groups according to their weights (within a range of 40.5-50.5 g), i.e., a model control group, a positive control group, and test compound groups (dgc003, dgc004, dgc010, and dgc017), respectively, 5 mice in each group, which were administered once a day by subcutaneous injection. Saline was subcutaneously injected into each mouse in the blank control group and the model control group every day. The administration was performed for 14 days. The positive control drug and the test compounds were administered at a dose of 30 nmol/kg, and the administration volume for each group was 0.005 mL/g weight. The mice were weighed before each administration, and 72-h food intake was weighed every three days.

[5] = system: diet-induced obesity (DIO) mice; test: Obese (DIO) model mice, 23 days of successive administration; assay type: in vivo, C57BL/6J Gpt mice
Excerpt: C57BL/6J Gpt mice (purchased from GemPharmatech (Jiangsu) Co., Ltd.) (6-8-week-old) were fed with H10060 high-fat diet (purchased from Beijing HFK Bioscience Co., Ltd.) to obtain diet-induced obesity (DIO) models, mice in a blank control group (n=5) were fed with standard diets, and all the mice were fed for 11 weeks after being purchased. One day before the first administration, the mice in the model group were randomly divided into 5 groups according to their weights (within a range of 39.5-49.5 g), i.e., a model control group, a positive control group, and test compound groups (dgc005, dgc016, and dgc020), respectively, 5 mice in each group, which were administered every day by subcutaneous injection. Saline was subcutaneously injected in the blank control group and the model control group every day. The administration was performed for 23 days. The positive control drug and the test compounds were administered at a dose of 30 nmol/kg, and the administration volume for each group was 0.005 mL/g weight. The mice were weighed before each administration, and 72-h food intake was weighed every three days. The mice fasted for 16 h before the last administration, fasting blood glucose levels were determined, blood was sampled from the orbital venous plexus to determine triglycerides and total cholesterol, and the liver was taken out for pathological section observation.
The liver of each C576L/6 mouse in the groups was fixed with 12% formaldehyde and prepared into a specimen, and the tissue block was repaired, dehydrated with graded alcohol, embedded in paraffin, stained with HE, and examined under a light microscope.

[6] = system: diet-induced obesity (DIO) mice; test: DIO mice, weight and blood glucose after multiple administrations at different doses; assay type: in vivo, C57BL/6N mice; settings: for Fasting blood glucose (mmol/L) before the last administration / Blood glucose level (mmol/L) 0.5 h after glucose loading / Glycemic load reduction rate: Day 22; for Fasting blood glucose (mmol/L) before the last administration: fasted 16 h; for Blood glucose level (mmol/L) 0.5 h after glucose loading: glucose 1 g/kg intragastric 30 min after administration; for Glycemic load reduction rate: versus model control group; for Reduction rate of weight without fasting on day 21 compared to day 0: n=5
Excerpt: 40 C57BL/6N mice were purchased from Beijing Vital River Laboratory Animal Technology Co., Ltd. Mice in a model group (n=35) were fed with H10060 high-fat diets to obtain diet-induced obesity (DIO) models, mice in a blank control group (n=5) were fed with standard diets, and all the mice were fed for 36 weeks. On the day of the first administration, the mice in the model group were randomly divided into 7 groups according to their weights (within a range of 45-60 g), i.e., a model control group, positive control groups (semaglutide at doses of 10 nmol/kg and 30 nmol/kg, respectively), and test compound groups (dgc005 and dgc016 at doses of 10 nmol/kg and 30 nmol/kg, respectively), 5 mice in each group. The positive control drug and the test compounds were respectively subcutaneously injected into each mouse in the positive control groups and the test compound groups every day, saline was subcutaneously injected into each mouse in the blank control group and the model control group, and the administration was performed for 22 days (the administration volume for each group was 0.005 mL/g weight). The mice were weighed before each administration, and 72-h food intake was weighed every three days. The mice fasted for 16 h before the last administration, and 30 min after administration, a glucose solution (1 g/kg, the administration volume was 0.01 mL/g weight) was intragastrically administered to each mouse for glucose tolerance test. Blood glucose levels were determined 0.5 h after glucose loading.

[7] = after 23 days of administration, 30 nmol/kg s.c. daily, n=5

T1 sequence (P43220 24-463, species assumed): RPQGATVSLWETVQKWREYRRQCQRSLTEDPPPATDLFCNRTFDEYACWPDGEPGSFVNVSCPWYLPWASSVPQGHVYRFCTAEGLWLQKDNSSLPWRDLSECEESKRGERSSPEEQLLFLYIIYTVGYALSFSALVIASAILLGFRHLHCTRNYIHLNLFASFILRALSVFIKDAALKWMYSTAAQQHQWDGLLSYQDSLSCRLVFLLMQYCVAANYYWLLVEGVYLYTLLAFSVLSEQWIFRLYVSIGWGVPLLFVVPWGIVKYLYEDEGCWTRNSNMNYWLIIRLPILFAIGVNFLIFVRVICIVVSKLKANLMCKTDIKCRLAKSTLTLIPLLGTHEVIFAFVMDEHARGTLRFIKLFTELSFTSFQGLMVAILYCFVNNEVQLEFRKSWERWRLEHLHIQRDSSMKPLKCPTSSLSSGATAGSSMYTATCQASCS
T2 sequence (P47871 26-477, species assumed): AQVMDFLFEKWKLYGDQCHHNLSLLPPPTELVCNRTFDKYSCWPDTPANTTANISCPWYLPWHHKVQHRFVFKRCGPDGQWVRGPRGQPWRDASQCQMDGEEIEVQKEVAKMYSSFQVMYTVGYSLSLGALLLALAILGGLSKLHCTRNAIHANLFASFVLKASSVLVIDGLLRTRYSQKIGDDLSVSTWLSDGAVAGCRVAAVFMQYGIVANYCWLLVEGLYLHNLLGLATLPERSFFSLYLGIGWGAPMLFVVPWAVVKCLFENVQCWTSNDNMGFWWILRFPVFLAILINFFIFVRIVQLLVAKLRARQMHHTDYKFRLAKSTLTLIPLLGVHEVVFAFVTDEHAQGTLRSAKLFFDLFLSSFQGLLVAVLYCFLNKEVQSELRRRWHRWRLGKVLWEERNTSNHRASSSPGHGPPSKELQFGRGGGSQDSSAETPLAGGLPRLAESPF

EC50 [1] [nM]	EC50 [2] [nM]	Compound	Blood glucose reduction rate (%) [3] [%]	Blood glucose level after glucose loading [3]	Fasting blood glucose level [3] [mmol/L]	Weight decreasing rate by the last administration [4] [%]	other results
0.113	5.84	CCCCCCCCCCCCCCCC(=O)N[C@@H](CCC(=O)NCCCC[C@H](NC(=O)[C@H](C)NC(=O)[C@H](C)NC(=O)[C@H](CCCNC(=N)N)NC(=O)[C@H](CCC(=O)O)NC(=O)[C@H](CCC(=O)O)NC(=O)[C@H](CC(C)C)NC(=O)[C@H](Cc1ccc(O)cc1)NC(=O)[C@H](CCCCN)NC(=O)[C@H](CO)NC(=O)[C@H](Cc1ccc(O)cc1)NC(=O)[C@H](CC(=O)O)NC(=O)[C@H](CO)NC(=O)[C@@H](NC(=O)[C@H](Cc1ccccc1)NC(=O)[C@@H](NC(=O)CNC(=O)[C@H](CCC(N)=O)NC(=O)C(C)(C)NC(=O)[C@@H](N)Cc1c[nH]cn1)[C@@H](C)O)[C@@H](C)O)C(=O)N[C@@H](CCC(=O)O)C(=O)N[C@@H](Cc1ccccc1)C(=O)N[C@H](C(=O)N[C@@H](C)C(=O)N[C@@H](Cc1c[nH]c2ccccc12)C(=O)N[C@@H](CC(C)C)C(=O)N[C@@H](CCC(=O)O)C(=O)N[C@@H](C)C(=O)NCC(=O)NCC(N)=O)[C@@H](C)CC)C(=O)O [dgc004] (HELM PEPTIDE1{H.[Aib].Q.G.T.F.T.S.D.Y.S.K.Y.L.E.E.R.A.A.K.E.F.I.A.W.L.E.A.G.G.[am]}|PEPTIDE2{[CCCCCCCCCCCCCCCC(=O)[*:2]].[gGlu]}$PEPTIDE1,PEPTIDE2,20:R3-2:R2$$$V2.0; N-terminus assumed)	50.24	8.46 ± 2.28 mmol/L	3.42 ± 0.85	19.9	
		semaglutide [Positive control group, reference compound]	67.18	5.58 ± 1.55**^ mmol/L	3.78 ± 1.28	12.9	Fasting blood glucose (mmol/L) before the last administration ([5]; 30 nmol/kg s.c. daily, 23 days, fasted 16 h, n=5): 4.48 ± 0.84 mmol/L; Weight decreasing rate ([5]; 30 nmol/kg s.c. every day, without fasting before the last administration compared to day 1): 20.9%; Examination of liver pathological section ([5]; 23 days, 30 nmol/kg s.c. daily, HE stain, 2 animals): mild to moderate lesions; TC (total cholesterol) [5, 7]: 3.97 ± 0.52^Δ mmol/L; TG (triglycerides) [5, 7]: 0.90 ± 0.13**^ΔΔ mmol/L; 72-h food intake ([5]; day 4 of administration, 30 nmol/kg s.c. daily): 3.50 g/mouse; 72-h food intake ([5]; day 7 of administration, 30 nmol/kg s.c. daily): 5.80 g/mouse; 72-h food intake ([5]; day 10 of administration, 30 nmol/kg s.c. daily): 5.40 g/mouse; 72-h food intake ([5]; day 13 of administration, 30 nmol/kg s.c. daily): 5.50 g/mouse; Fasting blood glucose (mmol/L) before the last administration ([6]; 10 nmol/kg s.c. daily): 5.54 ± 1.11 mmol/L; Blood glucose level (mmol/L) 0.5 h after glucose loading ([6]; 10 nmol/kg s.c. daily): 7.06 ± 1.15 mmol/L; Glycemic load reduction rate ([6]; 10 nmol/kg s.c. daily): 32.89; Reduction rate of weight without fasting on day 21 compared to day 0 ([6]; 10 nmol/kg s.c. every day): 15.28%; Fasting blood glucose (mmol/L) before the last administration ([6]; 30 nmol/kg s.c. daily): 5.56 ± 0.91 mmol/L; Blood glucose level (mmol/L) 0.5 h after glucose loading ([6]; 30 nmol/kg s.c. daily): 8.20 ± 0.87 mmol/L; Glycemic load reduction rate ([6]; 30 nmol/kg s.c. daily): 22.05; Reduction rate of weight without fasting on day 21 compared to day 0 ([6]; 30 nmol/kg s.c. every day): 18.83%
0.627	3.95	CCCCCCCCCCCCCCCC(=O)N[C@@H](CCC(=O)NCCCC[C@H](NC(=O)[C@H](C)NC(=O)[C@H](C)NC(=O)[C@H](CCCCN)NC(=O)[C@H](CCC(=O)O)NC(=O)[C@H](CC(=O)O)NC(=O)[C@H](CC(C)C)NC(=O)[C@H](Cc1ccc(O)cc1)NC(=O)[C@H](CCCCN)NC(=O)[C@H](CO)NC(=O)[C@H](Cc1ccc(O)cc1)NC(=O)[C@H](CC(=O)O)NC(=O)[C@H](CO)NC(=O)[C@@H](NC(=O)[C@H](Cc1ccccc1)NC(=O)[C@@H](NC(=O)CNC(=O)[C@H](CCC(N)=O)NC(=O)C(C)(C)NC(=O)[C@@H](N)Cc1c[nH]cn1)[C@@H](C)O)[C@@H](C)O)C(=O)N[C@@H](CCC(=O)O)C(=O)N[C@@H](Cc1ccccc1)C(=O)N[C@H](C(=O)N[C@@H](C)C(=O)N[C@@H](Cc1c[nH]c2ccccc12)C(=O)N[C@@H](CC(C)C)C(=O)N[C@@H](CCC(=O)O)C(=O)NCC(=O)NCC(N)=O)[C@@H](C)CC)C(=O)O [dgc017] (HELM PEPTIDE1{H.[Aib].Q.G.T.F.T.S.D.Y.S.K.Y.L.D.E.K.A.A.K.E.F.I.A.W.L.E.G.G.[am]}|PEPTIDE2{[CCCCCCCCCCCCCCCC(=O)[*:2]].[gGlu]}$PEPTIDE1,PEPTIDE2,20:R3-2:R2$$$V2.0; N-terminus assumed)	39.06	10.36 ± 1.87 mmol/L	3.72 ± 0.37	15.9	
0.537	0.614	CCCCCCCCCCCCCCCC(=O)N[C@@H](CCC(=O)N[C@@H](CCC(=O)NCCCC[C@H](NC(=O)[C@H](C)NC(=O)[C@H](C)NC(=O)[C@H](CCCNC(=N)N)NC(=O)[C@H](CCC(=O)O)NC(=O)[C@H](CCC(=O)O)NC(=O)[C@H](CC(C)C)NC(=O)[C@H](Cc1ccc(O)cc1)NC(=O)[C@H](CCCCN)NC(=O)[C@H](CO)NC(=O)[C@H](Cc1ccc(O)cc1)NC(=O)[C@H](CC(=O)O)NC(=O)[C@H](CO)NC(=O)[C@@H](NC(=O)[C@H](Cc1ccccc1)NC(=O)[C@@H](NC(=O)CNC(=O)[C@H](CCC(N)=O)NC(=O)C(C)(C)NC(=O)[C@@H](N)Cc1c[nH]cn1)[C@@H](C)O)[C@@H](C)O)C(=O)N[C@@H](CCC(=O)O)C(=O)N[C@@H](Cc1ccccc1)C(=O)N[C@H](C(=O)N[C@@H](C)C(=O)N[C@@H](Cc1c[nH]c2ccccc12)C(=O)N[C@@H](CC(C)C)C(=O)N[C@@H](CCC(=O)O)C(=O)N[C@@H](CO)C(=O)NCC(=O)NCC(N)=O)[C@@H](C)CC)C(=O)O)C(=O)O [dgc010] (HELM PEPTIDE1{H.[Aib].Q.G.T.F.T.S.D.Y.S.K.Y.L.E.E.R.A.A.K.E.F.I.A.W.L.E.S.G.G.[am]}|PEPTIDE2{[CCCCCCCCCCCCCCCC(=O)[*:2]].[gGlu].[gGlu]}$PEPTIDE1,PEPTIDE2,20:R3-3:R2$$$V2.0; N-terminus assumed)	52.35	8.10 ± 1.13 mmol/L	3.78 ± 0.84	16.4	
